Test results reported in article PMC3026871 (Cancer chemotherapy and pharmacology, 2010).

Assay: Plasma pharmacokinetics in patients
Conditions: for concentration at 24 h / concentration at 6 h: Cmin; for concentration at 24 h: 24 hours after the daily dose; for concentration at 6 h: 6 hours after the second dose
[1] = human, plasma, oral, 5 mg, Mean (SD), QD-7D 5 mg, Day 7, steady state, n=4
[2] = human, plasma, oral, 10 mg, Mean (SD), QD-7D 10 mg, Day 7, steady state, n=4
[3] = human, plasma, oral, 20 mg, Mean (SD), QD-7D 20 mg, Day 7, steady state, n=3
[4] = human, plasma, oral, 25 mg, Mean (SD), QID-7D 25 mg, Day 7, Dose 2, steady state, n=6
[5] = human, plasma, oral, 30 mg, Mean (SD), QD-7D 30 mg, Day 7, steady state, n=6
[6] = human, plasma, oral, 35 mg, Mean (SD), QID-7D 35 mg, Day 7, Dose 2, steady state, n=3
[7] = human, plasma, oral, 40 mg, QD-7D 40 mg, Day 7, steady state, individual data, n=1
[8] = human, plasma, oral, 45 mg, Mean (SD), QID-7D 45 mg, Day 7, Dose 2, steady state, n=3
[9] = human, plasma, oral, 55 mg, Mean (SD), QID-7D 55 mg, Day 7, Dose 2, steady state, n=4
[10] = human, plasma, oral, 55 mg, Mean (SD), QID/M-7D 55 mg, Day 7, Dose 2, steady state, n=3
[11] = human, plasma, oral, 60 mg, Mean (SD), QID/M-7D 60 mg, Day 7, Dose 2, steady state, n=6
[12] = human, plasma, oral, 60 mg, Mean (SD), QID/M-14D 60 mg, Day 14, Dose 2, steady state, n=3
[13] = human, plasma, oral, 60 mg, QID/M-21D 60 mg, Day 21, Dose 2, steady state, individual data, n=1
[14] = human, plasma, oral, 70 mg, Mean (SD), QID/M-7D 70 mg, Day 7, Dose 2, steady state, n=3
[15] = human, plasma, oral, 80 mg, Mean (SD), QID/M-7D 80 mg, Day 7, Dose 2, steady state, n=3

O=C(O)c1ccc(Nc2ncc3c(n2)-c2ccc(Cl)cc2C(c2c(F)cccc2F)=NC3)cc1 [MLN8054]
MLN8054 concentrations between the second and third doses (QID/M-21D 60 mg, days 14 and 21, 1 patient): < 2000 nM | concentration at 7 day (human, in vivo, 60 mg): ~2000 nM | concentration at 14 day (human, in vivo, 60 mg): > 2000 nM | AUC(0-t) (human, plasma, oral, 5 mg, AUC0–24, Mean (SD), QD-7D 5 mg, Day 7, steady state, n=4): 6.16 µM·h | Cmax [1]: 521 nM | concentration at 24 h [1]: 162 nM | Tmax (human, plasma, oral, 5 mg, Tmax, Mean (SD), QD-7D 5 mg, Day 7, steady state, n=4): 1.7 h | AUC(0-t) (human, plasma, oral, 10 mg, AUC0–24, Mean (SD), QD-7D 10 mg, Day 7, steady state, n=4): 7.53 µM·h | Cmax [2]: 724 nM | concentration at 24 h [2]: 154 nM | Tmax (human, plasma, oral, 10 mg, Tmax, Mean (SD), QD-7D 10 mg, Day 7, steady state, n=4): 3.8 h | AUC(0-t) (human, plasma, oral, 20 mg, AUC0–24, Mean (SD), QD-7D 20 mg, Day 7, steady state, n=3): 13.5 µM·h | Cmax [3]: 1180 nM | concentration at 24 h [3]: 240 nM | Tmax (human, plasma, oral, 20 mg, Tmax, Mean (SD), QD-7D 20 mg, Day 7, steady state, n=3): 3.3 h | AUC(0-t) (human, plasma, oral, 25 mg, AUC0–24, Mean (SD), QID-7D 25 mg, Day 7, Dose 2, steady state, n=6): 4.85 µM·h | Cmax [4]: 1050 nM | concentration at 6 h [4]: 720 nM | Tmax (human, plasma, oral, 25 mg, Tmax, Mean (SD), QID-7D 25 mg, Day 7, Dose 2, steady state, n=6): 2.5 h | AUC(0-t) (human, plasma, oral, 30 mg, AUC0–24, Mean (SD), QD-7D 30 mg, Day 7, steady state, n=6): 28.2 µM·h | Cmax [5]: 2360 nM | concentration at 24 h [5]: 912 nM | Tmax (human, plasma, oral, 30 mg, Tmax, Mean (SD), QD-7D 30 mg, Day 7, steady state, n=6): 3 h | AUC(0-t) (human, plasma, oral, 35 mg, AUC0–24, Mean (SD), QID-7D 35 mg, Day 7, Dose 2, steady state, n=3): 9.71 µM·h | Cmax [6]: 1970 nM | concentration at 6 h [6]: 1460 nM | Tmax (human, plasma, oral, 35 mg, Tmax, Mean (SD), QID-7D 35 mg, Day 7, Dose 2, steady state, n=3): 1.5 h | AUC(0-t) (human, plasma, oral, 40 mg, AUC0–24, QD-7D 40 mg, Day 7, steady state, individual data, n=1): 24.2 µM·h | Cmax [7]: 3040 nM | concentration at 24 h [7]: 461 nM | Tmax (human, plasma, oral, 40 mg, Tmax, QD-7D 40 mg, Day 7, steady state, individual data, n=1): 1 h | AUC(0-t) (human, plasma, oral, 45 mg, AUC0–24, Mean (SD), QID-7D 45 mg, Day 7, Dose 2, steady state, n=3): 7.55 µM·h | Cmax [8]: 1530 nM | concentration at 6 h [8]: 1140 nM | Tmax (human, plasma, oral, 45 mg, Tmax, Mean (SD), QID-7D 45 mg, Day 7, Dose 2, steady state, n=3): 0.8 h | AUC(0-t) (human, plasma, oral, 55 mg, AUC0–24, Mean (SD), QID-7D 55 mg, Day 7, Dose 2, steady state, n=4): 12.5 µM·h | AUC(0-t) (human, plasma, oral, 55 mg, AUC0–24, Mean (SD), QID/M-7D 55 mg, Day 7, Dose 2, steady state, n=3): 10.7 µM·h | Cmax [9]: 2480 nM | Cmax [10]: 2310 nM | concentration at 6 h [9]: 1800 nM | concentration at 6 h [10]: 1310 nM | Tmax (human, plasma, oral, 55 mg, Tmax, Mean (SD), QID-7D 55 mg, Day 7, Dose 2, steady state, n=4): 1.2 h | Tmax (human, plasma, oral, 55 mg, Tmax, Mean (SD), QID/M-7D 55 mg, Day 7, Dose 2, steady state, n=3): 1 h | AUC(0-t) (human, plasma, oral, 60 mg, AUC0–24, Mean (SD), QID/M-7D 60 mg, Day 7, Dose 2, steady state, n=6): 8.38 µM·h | AUC(0-t) (human, plasma, oral, 60 mg, AUC0–24, Mean (SD), QID/M-14D 60 mg, Day 14, Dose 2, steady state, n=3): 13.2 µM·h | AUC(0-t) (human, plasma, oral, 60 mg, AUC0–24, QID/M-21D 60 mg, Day 21, Dose 2, steady state, individual data, n=1): 7.03 µM·h | Cmax [11]: 1950 nM | Cmax [12]: 2640 nM | Cmax [13]: 1500 nM | concentration at 6 h [11]: 1090 nM | concentration at 6 h [12]: 2070 nM | concentration at 6 h [13]: 945 nM | Tmax (human, plasma, oral, 60 mg, Tmax, Mean (SD), QID/M-7D 60 mg, Day 7, Dose 2, steady state, n=6): 1.3 h | Tmax (human, plasma, oral, 60 mg, Tmax, Mean (SD), QID/M-14D 60 mg, Day 14, Dose 2, steady state, n=3): 2.3 h | Tmax (human, plasma, oral, 60 mg, Tmax, QID/M-21D 60 mg, Day 21, Dose 2, steady state, individual data, n=1): 1 h | AUC(0-t) (human, plasma, oral, 70 mg, AUC0–24, Mean (SD), QID/M-7D 70 mg, Day 7, Dose 2, steady state, n=3): 15.2 µM·h | Cmax [14]: 3280 nM | concentration at 6 h [14]: 1950 nM | Tmax (human, plasma, oral, 70 mg, Tmax, Mean (SD), QID/M-7D 70 mg, Day 7, Dose 2, steady state, n=3): 1.5 h | concentration at 7 days (human, plasma, oral, 70 mg, mean plasma MLN8054 concentration maintained over the course of treatment, QID/M-7D 70 mg cohort): 2000 nM | AUC(0-t) (human, plasma, oral, 80 mg, AUC0–24, Mean (SD), QID/M-7D 80 mg, Day 7, Dose 2, steady state, n=3): 10.1 µM·h | Cmax [15]: 2130 nM | concentration at 6 h [15]: 1670 nM | Tmax (human, plasma, oral, 80 mg, Tmax, Mean (SD), QID/M-7D 80 mg, Day 7, Dose 2, steady state, n=3): 1 h | half-life (human, plasma, po): 30 to 40 h | Tmax (human, plasma, po, Tmax (range across cohorts), patients, across cohorts): 1 to 4 h | patients with trough MLN8054 concentrations >2000 nM (of the 48 patients with sufficient data to estimate pharmacokinetic parameters): 7 patients
